Assay results reported in patent US7592144B2, “Bacterial ligand-binding sensor” (The Trustees of Princeton University, priority 2005, dated 2009).
“Also recorded” adds a separate entry of the source.

Legend:
[1] = biological target: T1, human thyroid hormone receptor beta ligand-binding domain (Homo sapiens, UniProt P10828); test: Paper disk growth test of cells harboring pMIT::TR* on thymineless agar plates; format: cell-based; conditions: 30 degrees Celsius, approximately 50 hours, disks saturated in 10 millimolar solutions
T1 construct: expressed in transfected cells; host or cells: E. coli D1210(delta)thyA carrying pMIT::TR*
T1 sequence (P10828 203-461): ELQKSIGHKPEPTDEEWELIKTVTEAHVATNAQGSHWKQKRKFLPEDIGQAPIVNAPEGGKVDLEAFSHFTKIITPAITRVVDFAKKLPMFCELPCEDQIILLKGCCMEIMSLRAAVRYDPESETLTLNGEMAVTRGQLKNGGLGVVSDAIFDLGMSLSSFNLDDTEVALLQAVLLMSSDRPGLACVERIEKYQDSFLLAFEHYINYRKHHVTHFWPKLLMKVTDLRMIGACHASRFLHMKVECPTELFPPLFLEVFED
Procedure: (§1) FIG. 2 consists of FIGS. 2A, 2B, 2C, and 2D. FIG. 2A is a graph that depicts ligand effects on the growth phenotypes of E. coli D1210(delta)thyA cells carrying the pMIT::ER* vector in 50 milliliter cultures of liquid thymineless medium at 34 degrees Celsius. […] Varying concentrations of estrogen were dissolved in dimethylsulfoxide to allow precise control of dosing. Experiments were carried out in duplicate and errors bars represent one standard deviation from the mean value. FIG. 2C is a graph that depicts ligand effects on the growth phenotypes of cells harboring pMIT::TR* in 50 milliliter cultures of liquid thymineless medium at 34 degrees Celsius. FIG. 2D is an image that depicts ligand effects on the growth phenotypes of cells harboring pMIT::TR* and incubated on thymineless agar plates at 30 degrees Celsius for approximately 50 hours. […] In the experiment corresponding to FIG. 2D, the paper disks applied were allowed to saturate in 10 millimolar solutions of estrogen and thyroid hormone prior to applying them to the medium.
In this case a lawn of cells was plated onto thymineless medium and exposed to small paper disks impregnated with either estrogen or thyroid hormone.

[2] = biological target: T2, human estrogen receptor alpha ligand-binding domain (Homo sapiens, UniProt P03372); test: Growth phenotype of E. coli D1210(delta)thyA cells carrying pMIT::ER* in liquid thymineless medium; format: cell-based; conditions: 34 degrees Celsius, ligand 10 micromolar
T2 construct: expressed in transfected cells; host or cells: E. coli D1210(delta)thyA carrying pMIT::ER*
T2 sequence (P03372 301-553): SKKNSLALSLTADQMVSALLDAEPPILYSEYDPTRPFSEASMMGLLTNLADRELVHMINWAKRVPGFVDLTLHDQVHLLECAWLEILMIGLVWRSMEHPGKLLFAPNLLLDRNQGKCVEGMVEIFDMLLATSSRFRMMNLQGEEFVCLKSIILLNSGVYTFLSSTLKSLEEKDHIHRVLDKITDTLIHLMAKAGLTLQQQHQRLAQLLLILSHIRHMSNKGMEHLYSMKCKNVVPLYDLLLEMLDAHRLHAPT
Procedure: as §1
(§2) All experiments were carried out at least in duplicate.

[3] = biological target: T1, human thyroid hormone receptor beta ligand-binding domain; test: Growth phenotype of E. coli D1210(delta)thyA cells carrying pMIT::TR* in liquid thymineless medium; format: cell-based; conditions: 34 degrees Celsius, ligand 10 micromolar
Procedure: as §1, §2

[4] = biological target: T2, human estrogen receptor alpha ligand-binding domain; test: Detection of antagonism: pMIT::ER* cells grown in the presence of E2 plus increasing concentrations of test compound; format: cell-based; conditions: 10 micromolar E2, liquid thymineless medium, 34 degrees Celsius, OD600 at 15 hours
Procedure: FIG. 4 is a graph showing antagonism of estrogen agonists and antagonists. […] Relative cell growth was determined by OD600 at 15 hours in 5 milliliter cultures of liquid thymineless medium at 34 degrees Celsius.
as §2

ER = biological target: T3, ER (Homo sapiens, UniProt P03372); test: Hormone-dependent growth with inteinless MBP-ER-TS fusion
T3 sequence (P03372 301-553): T2 sequence (P03372 301-553)

Compound	colony formation around ligand-impregnated paper disk [1]	ligand effect on cell growth [2]	ligand effect on cell growth [3]	effect on cell growth when combined with estrogen agonist [4]	behaviour (agonist/antagonist) with inteinless fusion (ER)
17-beta-estradiol [E2]	no colonies could be observed	–	–	–	–
N[C@@H](Cc1ccc(Oc2cc(I)c(O)c(I)c2)c(I)c1)C(=O)O [T3, 3,3′,5′-triiodo-L-thyronine]	clear colonies were observed	insensitive; also recorded: enhance growth only in cell cultures expressing the TR fusion	able to grow only in the presence; also recorded: able to enhance growth	–	–
CC(=O)[C@H]1CC[C@H]2[C@@H]3CCC4=CC(=O)CC[C@]4(C)[C@H]3CC[C@]12C [progesterone]	–	no effect on cell growth	no effect on cell growth	–	–
4-hydroxytamoxifen	–	–	–	inhibitory effects	estrogen super-agonist
